Data as given in ChEMBL document CHEMBL1201862, “PubChem BioAssay data set” (2004).
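Grown in 96-well plates, cells were treated for 48 hours with each compound at five concentrations. Insufficient inhibition: endpoint recorded as highest concentration tested. GI50 is the concentration that inhibits growth by half.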 The source made the active and inactive calls. Cut-off read from the data, not from the text of the source: active = GI50 up to about 1.1 µM and inactive = higher.

What was measured:
Test in all cases: NCI tumour cell line growth inhibition, 48 h
786-0 = tested on: 786-0
A498 = tested on: A498
A549 = tested on: A549
ACHN = tested on: ACHN
BT-549 = tested on: BT-549
CAKI-1 = tested on: CAKI-1
CCRF-CEM = tested on: CCRF-CEM
COLO 205 = tested on: COLO 205
DU-145 = tested on: DU-145
EKVX = tested on: EKVX
HCC 2998 = tested on: HCC 2998
HCT-116 = tested on: HCT-116
HCT-15 = tested on: HCT-15
HL-60 = tested on: HL-60
HOP-62 = tested on: HOP-62
HOP-92 = tested on: HOP-92
HT-29 = tested on: HT-29
Hs-578T = tested on: Hs-578T
IGROV-1 = tested on: IGROV-1
K562 = tested on: K562
KM12 = tested on: KM12
LOX IMVI = tested on: LOX IMVI
M14 = tested on: M14
MCF7 = tested on: MCF7
MDA-MB-231 = tested on: MDA-MB-231
MDA-MB-435 = tested on: MDA-MB-435
MDA-N = tested on: MDA-N
MOLT-4 = tested on: MOLT-4
Malme-3M = tested on: Malme-3M
NCI-H226 = tested on: NCI-H226
NCI-H23 = tested on: NCI-H23
NCI-H460 = tested on: NCI-H460
NCI-H522 = tested on: NCI-H522
NCI/ADR-RES = tested on: NCI/ADR-RES
OVCAR-4 = tested on: OVCAR-4
OVCAR-5 = tested on: OVCAR-5
OVCAR-8 = tested on: OVCAR-8
PC-3 = tested on: PC-3
RPMI-8226 = tested on: RPMI-8226
RXF 393 = tested on: RXF 393
SF-268 = tested on: SF-268
SF-295 = tested on: SF-295
SF-539 = tested on: SF-539
SK-MEL-28 = tested on: SK-MEL-28
SK-MEL-2 = tested on: SK-MEL-2
SK-MEL-5 = tested on: SK-MEL-5
SK-OV-3 = tested on: SK-OV-3
SN12C = tested on: SN12C
SNB-19 = tested on: SNB-19
SNB-75 = tested on: SNB-75
SR = tested on: SR
SW-620 = tested on: SW-620
T47D = tested on: T47D
TK-10 = tested on: TK-10
U-251 = tested on: U-251
UACC-257 = tested on: UACC-257
UACC-62 = tested on: UACC-62
UO-31 = tested on: UO-31
OVCAR-3 = tested on: OVCAR-3

Clc1ccc(/C(=C/c2ccccc2)Cn2ccnc2)cc1
GI50 (786-0): 30.5 µM (inactive)
GI50 (A498): 22.6 µM (inactive)
GI50 (A549): 24.8 µM (inactive)
GI50 (ACHN): 16.6 µM (inactive)
GI50 (BT-549): 22.4 µM (inactive)
GI50 (CAKI-1): 19.3 µM (inactive)
GI50 (CCRF-CEM): 17.5 µM (inactive)
GI50 (COLO 205): 18.6 µM (inactive)
GI50 (DU-145): 33 µM (inactive)
GI50 (EKVX): 31.9 µM (inactive)
GI50 (HCC 2998): 42.7 µM (inactive)
GI50 (HCT-116): 9.08 µM (inactive)
GI50 (HCT-15): 20.2 µM
GI50 (HL-60): 14.3 µM (inactive)
GI50 (HOP-62): 89.1 µM (inactive)
GI50 (HOP-92): 12.7 µM (inactive)
GI50 (HT-29): 29.6 µM (inactive)
GI50 (Hs-578T): 44.5 µM (inactive)
GI50 (IGROV-1): 17.9 µM (inactive)
GI50 (K562): 5.42 µM (inactive)
GI50 (KM12): 13.2 µM (inactive)
GI50 (LOX IMVI): 19.2 µM (inactive)
GI50 (M14): 21.9 µM (inactive)
GI50 (MCF7): 20.4 µM (inactive)
GI50 (MDA-MB-231): 30.2 µM (inactive)
GI50 (MDA-MB-435): 19.9 µM (inactive)
GI50 (MDA-N): 16.8 µM (inactive)
GI50 (MOLT-4): 13.6 µM (inactive)
GI50 (Malme-3M): 8.97 µM (inactive)
GI50 (NCI-H226): 12.9 µM (inactive)
GI50 (NCI-H23): 38.2 µM (inactive)
GI50 (NCI-H460): 26.9 µM (inactive)
GI50 (NCI-H522): 11.9 µM (inactive)
GI50 (NCI/ADR-RES): 20.4 µM (inactive)
GI50 (OVCAR-4): 22.6 µM (inactive)
GI50 (OVCAR-5): 44.9 µM (inactive)
GI50 (OVCAR-8): 26.9 µM (inactive)
GI50 (PC-3): 13.6 µM (inactive)
GI50 (RPMI-8226): 18.2 µM (inactive)
GI50 (RXF 393): 14.6 µM (inactive)
GI50 (SF-268): > 100 µM (inactive)
GI50 (SF-295): 12.7 µM (inactive)
GI50 (SF-539): 24 µM (inactive)
GI50 (SK-MEL-28): 30.1 µM (inactive)
GI50 (SK-MEL-2): 14.6 µM (inactive)
GI50 (SK-MEL-5): 11.1 µM (inactive)
GI50 (SK-OV-3): 19.1 µM (inactive)
GI50 (SN12C): 22.1 µM (inactive)
GI50 (SNB-19): 12 µM (inactive)
GI50 (SNB-75): 18.6 µM (inactive)
GI50 (SR): 19.8 µM (inactive)
GI50 (SW-620): 27.6 µM (inactive)
GI50 (T47D): 12 µM (inactive)
GI50 (TK-10): 56.1 µM (inactive)
GI50 (U-251): 21.8 µM (inactive)
GI50 (UACC-257): 30.5 µM (inactive)
GI50 (UACC-62): 28 µM (inactive)
GI50 (UO-31): 3.39 µM (inactive)

C=Cc1nc2c(Cl)ncnc2n1Cc1ccccc1
GI50 (786-0): 1.6 µM (inactive)
GI50 (A498): 7.13 µM (inactive)
GI50 (A549): 11.2 µM (inactive)
GI50 (ACHN): 1.86 µM (inactive)
GI50 (BT-549): 4.71 µM (inactive)
GI50 (CAKI-1): 1.91 µM (inactive)
GI50 (CCRF-CEM): 2.74 µM (inactive)
GI50 (COLO 205): 1.53 µM (inactive)
GI50 (DU-145): 2.17 µM (inactive)
GI50 (EKVX): 4.7 µM (inactive)
GI50 (HCC 2998): 2.61 µM (inactive)
GI50 (HCT-116): 2.06 µM (inactive)
GI50 (HCT-15): 2.51 µM
GI50 (HL-60): 2.72 µM (inactive)
GI50 (HOP-62): 3.34 µM (inactive)
GI50 (HOP-92): 2.07 µM (inactive)
GI50 (HT-29): 2.62 µM (inactive)
GI50 (Hs-578T): 13.2 µM (inactive)
GI50 (IGROV-1): 3.08 µM (inactive)
GI50 (K562): 3.05 µM (inactive)
GI50 (KM12): 2.84 µM (inactive)
GI50 (LOX IMVI): 2.76 µM (inactive)
GI50 (M14): 3.88 µM (inactive)
GI50 (MCF7): 1.55 µM (inactive)
GI50 (MDA-MB-231): 5.74 µM (inactive)
GI50 (MDA-MB-435): 2.65 µM (inactive)
GI50 (MDA-N): 3.12 µM (inactive)
GI50 (MOLT-4): 2.18 µM (inactive)
GI50 (Malme-3M): 4.03 µM (inactive)
GI50 (NCI-H226): 3.08 µM (inactive)
GI50 (NCI-H23): 3.52 µM (inactive)
GI50 (NCI-H460): 7.8 µM (inactive)
GI50 (NCI-H522): 1.89 µM (inactive)
GI50 (NCI/ADR-RES): 3.7 µM (inactive)
GI50 (OVCAR-3): 2.58 µM (inactive)
GI50 (OVCAR-4): 2.76 µM (inactive)
GI50 (OVCAR-5): 14.7 µM (inactive)
GI50 (OVCAR-8): 3.2 µM (inactive)
GI50 (PC-3): 3.52 µM (inactive)
GI50 (RPMI-8226): 0.839 µM (active)
GI50 (RXF 393): 2.69 µM (inactive)
GI50 (SF-268): 6.35 µM (inactive)
GI50 (SF-295): 15.6 µM (inactive)
GI50 (SF-539): 2.13 µM (inactive)
GI50 (SK-MEL-28): 3.1 µM (inactive)
GI50 (SK-MEL-2): 12.1 µM (inactive)
GI50 (SK-MEL-5): 2.54 µM (inactive)
GI50 (SK-OV-3): 15.3 µM (inactive)
GI50 (SN12C): 6.43 µM (inactive)
GI50 (SNB-19): 14.8 µM (inactive)
GI50 (SNB-75): 13.6 µM (inactive)
GI50 (SR): 2.56 µM (inactive)
GI50 (SW-620): 5.94 µM (inactive)
GI50 (T47D): 2.59 µM (inactive)
GI50 (TK-10): 2.11 µM (inactive)
GI50 (U-251): 10.5 µM (inactive)
GI50 (UACC-257): 2.59 µM (inactive)
GI50 (UACC-62): 6.68 µM (inactive)
GI50 (UO-31): 2.51 µM (inactive)
